Measured values taken from patent US10590143B2, “Herbicidally active (alkynyl-phenyl)-substituted cyclic dione compounds and derivatives thereof” (Syngenta Limited, priority 2013, dated 2020).
Where two headings read alike, the source gives them in different places.

How the values were obtained:
Assay type in all cases: in vivo
[1] = test system: Abutilon theophrasti (ABUTH); experiment: Biological Example 1 glasshouse assay for herbicidal activity; details: 312 h, 13 days after application, read-out: percentage phytotoxicity ABUTH
Protocol: (§1) Seeds of a variety of test plant species were sown in standard soil** in pots. After cultivation for one day (pre-emergence) or after 8 days cultivation (post-emergence) under controlled conditions in a glasshouse (at 24/16° C., day/night; 14 hours light; 65% humidity), the plants were sprayed with an aqueous spray solution derived from the formulation of the technical active ingredient (the test herbicide) in acetone/water (50:50) solution containing 0.5% Tween 20 (polyoxyethylene sorbitan monolaurate, CAS Reg. No. 9005-64-5). The test plants were then grown on under controlled conditions in a glasshouse (at 24/16° C., day/night; 14 hours light; 65% humidity) and watered twice daily. 13 Days after application of the test herbicide, for pre- and post-emergence, the test was evaluated visually for percentage phytotoxicity to each plant (where 100%=total damage to plant; 0%=no damage to plant). Generally, each test herbicide is only tested on 1 plant per plant species for each application rate tested and for each application timing. **The “standard soil” in Biological Example 1 is usually a “sand” or “sandy loam” type of soil.
(§2) Dicotyledonous weeds: ABUTH=Abutilon theophrasti; AMARE=Amaranthus retroflexus. Grassy monocotyledonous weeds: SETFA=Setaria faberi; ALOMY=Alopecurus myosuroides; ECHCG=Echinochloa crus-galli; ZEAMX=Zea mays (corn, maize, e.g. volunteer corn).

[2] = test system: Alopecurus myosuroides (ALOMY); experiment: as above; details: 312 h, 13 days after application, read-out: percentage phytotoxicity ALOMY
Protocol: as §1, §2

[3] = test system: Amaranthus retroflexus (AMARE); experiment: as above; details: Amaranthus retroflexus, 312 h, 13 days after application, read-out: percentage phytotoxicity AMARE
Protocol: as §1, §2

[4] = test system: Echinochloa crus-galli (ECHCG); experiment: as above; details: Echinochloa crus-galli, 312 h, 13 days after application, read-out: percentage phytotoxicity ECHCG
Protocol: as §1, §2

Setaria faberi (SETFA) [5] = experiment: as above; details: 312 h, 13 days after application, read-out: percentage phytotoxicity SETFA
Protocol: as §1, §2

[6] = test system: Zea mays (ZEAMX, corn, maize, e.g. volunteer corn); experiment: as above; details: Zea mays, 312 h, 13 days after application, read-out: percentage phytotoxicity ZEAMX
Protocol: as §1, §2

Eleusine indica (ELEIN) = experiment: Biological Example 3 glasshouse assay for herbicidal activity, using various adjuvant systems; details: post-emergence, 8 g/ha, 14 or 15 DAA; adjuvant 0.5% v/v + 1.0% AMS + 12.5% IPA: TEHP (A3-A7), Adigor (A8, P1, P2, P4), Hexamoll DINCH (A1)
Protocol: (§3) • Materials and Methods • Herbicide Application: Post-emergence foliar spray application, 200 L/ha, usually one or two replicates for the weeds (depending on application rate), and two replicates for soybean. • Climate: Standard warm conditions (tropical), in glasshouse. Specifically, the glasshouse bay conditions are 24° C./18° C. day/night; 16/8 hours light/dark; 65% humidity. • Plants: The herbicidal application takes place at the following growth stages for plants which include inter alia one or more of the following plants (usually the herbicidal application takes place on at least the following plants: DIGSA, ELEIN, SETFA, ZEAMX, GLXMA Nikko, and GLXMA TMG133, and often also either BRADC or BRAPP): • Brachiaria decumbens (BRADC)—growth stage (GS) 12 or 13 (or GS 12)—or, if BRADC is not used, then usually Brachiaria platyphylla (BRAPP)—growth stage 12 or 13 • Digitaria sanguinalis (DIGSA)—growth stage 12 or 13 • Eleusine indica (ELEIN)—growth stage 12 or 13 • Setaria faberi (SETFA)—growth stage 12 or 13 • Echinochloa crus-galli (ECHCG)—growth stage 12 or 13 • Sorghum halepense (annual) (SORHA)—growth stage 12 or 13 • Panicum dichotomiflorum (PANDI)—growth stage 12 or 13 • Zea mays (ZEAMX, maize/corn, e.g. can occur as volunteer corn) cultivar “Garland”—growth stage 12 or 13 • Glycine max (GLXMA, soybean) cultivar “Nikko”—growth stage: 1st trifoliate • Glycine max (GLXMA, soybean) cultivar “TMG133”—which is Roundup Ready™ glyphosate-tolerant soybean cultivar TMG133 (typically available from Monsanto in Brazil)—growth stage: 1st trifoliate. • Herbicidal Compositions Tested:
(§4) Each test compound is applied with one of the following adjuvant systems (all percentages are final concentrations in the aqueous spray mixture): • Adjuvant system 1: 0.5% v/v Adigor™*, 1.0% v/v AMS (ammonium sulphate) and 12.5% v/v IPA (isopropyl alcohol). • Adjuvant system 2: 0.5% v/v Hexamoll™ DINCH**, 1.0% v/v AMS (ammonium sulphate) and 12.5% v/v IPA (isopropyl alcohol). • Adjuvant system 3: 0.5% v/v tris-(2-ethylhexyl)phosphate (“TEHP”), 1.0% v/v AMS (ammonium sulphate) and 12.5% v/v IPA (isopropyl alcohol). ***Adigor™ (currently available in many countries from Syngenta) is an emulsifiable concentrate which consists of: • (i) ethoxylated alcohols, which typically includes ethoxylated higher alcohols (e.g. ethoxylates of alcohols wherein the alcohols are within the range of C12-C22); and • (ii) a mixture of heavy aromatic hydrocarbons, which typically includes (e.g. includes 50% or more by weight of the heavy aromatic hydrocarbons of) a mixture of naphthalenes each of which is substituted by one or more alkyls wherein the alkyl(s) in total have 1-4 carbon atoms per naphthalene molecule (e.g. Solvesso 200 ND™); and • (iii) about 47% w/w and/or about 45% w/v (with respect to the emulsifiable concentrate) of methylated rapeseed oil (rapeseed oil methyl ester) (e.g. Agnique ME 18 RD-F™), as an adjuvant. **Hexamoll™ DINCH™ is 1,2-cyclohexane dicarboxylic acid di-isononyl ester
(§5) Seeds of the weed (including volunteer) plants, typically including inter alia Digitaria sanguinalis (DIGSA), Eleusine indica (ELEIN), Setaria faberi (SETFA), Zea mays (ZEAMX, corn), and sometimes also [either Brachiaria decumbens (BRADC) or Brachiaria platyphylla (BRAPP)], are sown in seed trays (troughs) containing clay loam soil (pH 7.0, 2.2% organic matter, “Trough Mix A”); and soybean seed is sown in pots containing the same soil with 3 soybean seedlings per pot. The plants are sprayed with the test herbicide when they reach the growth stages mentioned above.
(§6) The test herbicidal solutions are prepared by mixing the appropriate aliquots of the test substance(s) and one of the adjuvant systems indicated above*** in deionised water to give the desired treatment concentration.
(§7) The herbicidal application is made as a foliar spray, using a tracksprayer. Following the herbicidal application, the plants are watered twice per day for the duration of the test. […]

[7] = test system: Digitaria sanguinalis (DIGSA); experiment: as above; details: post-emergence, 8 g/ha, 14 or 15 DAA; adjuvant 0.5% v/v + 1.0% AMS + 12.5% IPA: TEHP (A3-A7), Adigor (A8, P1, P2, P4), Hexamoll DINCH (A1)
Protocol: as §3, §4, §5, §6, §7

Setaria faberi (SETFA) [8] = experiment: as above; details: post-emergence, 8 g/ha, 14 or 15 DAA; adjuvant 0.5% v/v + 1.0% AMS + 12.5% IPA: TEHP (A3-A7), Adigor (A8, P1, P2, P4), Hexamoll DINCH (A1)
Protocol: as §3, §4, §5, §6, §7

Zea mays (ZEAMX, corn) = experiment: as above; details: post-emergence, 8 g/ha, 14 or 15 DAA; adjuvant 0.5% v/v + 1.0% AMS + 12.5% IPA: TEHP (A3-A7), Adigor (A8, P1, P2, P4), Hexamoll DINCH (A1)
Protocol: as §3, §4, §5, §6, §7

[9] = post-emergence, post-emergence, 30 g/ha

SMILES | pest or weed control at 250 g/ha ([1]; post-emergence, post-emergence) [%] | pest or weed control at 250 g/ha ([1]; pre-emergence, pre-emergence) [%] | pest or weed control at 250 g/ha ([2]; post-emergence) [%] | pest or weed control at 250 g/ha ([2]; pre-emergence) [%] | pest or weed control at 250 g/ha ([3]; post-emergence, post-emergence) [%] | pest or weed control at 250 g/ha ([3]; pre-emergence, pre-emergence) [%] | pest or weed control at 250 g/ha ([4]; post-emergence, post-emergence) [%] | pest or weed control at 250 g/ha ([4]; pre-emergence, pre-emergence) [%] | pest or weed control at 250 g/ha (Setaria faberi (SETFA) [5]; post-emergence, post-emergence) [%] | pest or weed control at 250 g/ha (Setaria faberi (SETFA) [5]; pre-emergence, pre-emergence) [%] | pest or weed control at 250 g/ha ([6]; post-emergence, post-emergence) [%] | pest or weed control at 250 g/ha ([6]; pre-emergence, pre-emergence) [%] | percentage control of (percentage phytotoxicity on) Eleusine indica (ELEIN) (Eleusine indica (ELEIN)) [%] | percentage control of (percentage phytotoxicity on) Digitaria sanguinalis (DIGSA) [7] [%] | percentage control of (percentage phytotoxicity on) Setaria faberi (SETFA) (Setaria faberi (SETFA) [8]) [%] | further results
CC#Cc1cc(Br)c(C2C(=O)C3CCC(C3)C2=O)c(OC)c1 (centres unmarked) [Compound A3] | 10 | 10 | 100 | 100 | 20 | 20 | 100 | 100 | 100 | 100 | 100 | 100 | 55 | – | – | pest or weed control at 30 g/ha [1, 9]: 0%; pest or weed control at 30 g/ha ([2]; post-emergence, 30 g/ha): 70%; pest or weed control at 30 g/ha [3, 9]: 0%; pest or weed control at 30 g/ha [4, 9]: 90%; pest or weed control at 30 g/ha (Setaria faberi (SETFA) [5]; [9]): 80%; pest or weed control at 30 g/ha [6, 9]: 90%
CC#Cc1cc(F)c(C2C(=O)C3CCC(C3)C2=O)c(OCC(F)(F)F)c1 (centres unmarked) [Compound A6] | 20 | 30 | 80 | 60 | 50 | 60 | 100 | 80 | 80 | 70 | 100 | 80 | 5 | 5 | 25 | percentage control of (percentage phytotoxicity on) Zea mays (ZEAMX, corn) (Zea mays (ZEAMX, corn)): 0%
CC#Cc1cc(F)c(C2C(=O)C3CCC(C3)C2=O)c(OCCOC)c1 (centres unmarked) [Compound A5] | 30 | 20 | 70 | 40 | 30 | 50 | 100 | 80 | 80 | 60 | 100 | 90 | 0 | 0 | 25 | –
